Results as given in patent publication US20040048318A1, “Method for screening anti-proliferative compounds and method for inhibiting tumor growth” (priority 2003, published 2004).

Assays:
methionine 14-3-3γ [1] = test: IEF-immunoblotting for induction of methionine 14-3-3γ in H1299 cells; assay type: cell-based, human
Experimental: (§1) H1299, a non-small cell lung carcinoma which is obtained from the American Type Culture Collection (Rockville, Md.), is cultivated in PRMI1640 supplemented with 10% fetal calf serum and glutamine, penicillin, streptomycin, and gentamycin. The H1299 cells are grown to about 70% confluenc and then cultivated with or without 25 μM bengamide. Samples of the cells are taken at 8, 16, 24 and 48 hours. At the end of the culture periods, the sample cells are washed with PBS (phosphate buffered solution, available from Sigma Chemical) and collected by scraping and centrifugation. The cell pellet is dissolved in 4 volumes of Rabilloud buffer. Rabilloud buffer contained 4% non-ionic detergent CHAPS, 7 M urea, 2 M thiourea, 10 mg/ml dithiothreitol and 1% pharmalytes (pH 3-10), which buffer is disclosed in Electrophoresis, 1997 Mar-Apr., 18 (3-4): 307-16, Rabilloud et al., Improvement of the Solubilization of Proteins in Two-dimensional electrophoresis with immobilized pH Gradients. The cell concentration was between 2 and 2.5 E7/ml.
(§2) Immobilized pH-gradient (IPG) gels (Immobiline®, Amersham Pharmacia Biotech) are re-swollen for at least 4 hours in Rabilloud buffer without pharmalytes. Samples (1 μl of cell extract) are directly loaded at a distance of about 2 cm from the anode to the surface of the gel using a comb. Focusing is carried out at 200 V for 2 hours and at 1000 or 3500 V until a 25000 Vh is reached. The temperature is maintained at 15° C. After focusing, the gel is fixed in 12% TCA-3.5% sulfosalicylic acid for 1 hour and washed in water for 1 hour. The washed gel is blotted by placing the gel on a flat surface and covering with a sheet of PVDF-membrane which was sequentially soaked in Isopropanol, water and a guanidinium chloride solution of […] Tris-HCl at pH 7.5, 4 M guanidinium chloride, 1 mg/ml DTT. The membrane is covered with 4 layers of filter paper sheets which was soaked with the guanidinium chloride solution. A polyethylene film is placed over the filter sheets and a 3 kg weight having a 14 cm by 14 cm flat surface is placed over the polyethylene film to ensure a good contact between the layers. The gel layers are undisturbed to allow transfer for overnight, then the membrane is washed with water and treated with a solution of 0.5% formaldehyde in PBS for 30 minutes. The membrane is incubated with 2% glycine in PBS at pH 7 for 30 minutes.
The membrane is then blocked with 0.05% Tween 20-1% skimmed dry milk powder in PBS for 1 hour. Commercially available antibodies against 14-3-3 (Santa Cruz) are applied for 4 hours in blocking buffer. Chemiluminescence detection (ECL-kit, Amersham Pharmacia Biotech) is carried out using the secondary antibodies supplied with the kit.

methionine 14-3-3γ [2] = test: IEF-immunoblotting for induction of methionine 14-3-3γ in MDA-MB435 (mammary carcinoma) cells; assay type: cell-based, human; conditions: 200 nM LAF389, within 18 hours
Experimental: [The procedure below names another cell line; the source says it served here with some conditions changed.] as §1
(§3) Immobilized pH-gradient (IPG) gels (Immobiline®, Amersham Pharmacia Biotech) are re-swollen for at least 4 hours in Rabilloud buffer without pharmalytes. Samples (1 μl of cell extract) are directly loaded at a distance of about 2 cm from the anode to the surface of the gel using a comb. […]

methionine 14-3-3γ [3] = test: IEF-immunoblotting for induction of methionine 14-3-3γ in A549 (lung carcinoma) cells; assay type: cell-based, human; conditions: 200 nM LAF389, within 18 hours
Experimental: [The procedure below names another cell line; the source says it served here with some conditions changed.] as §1, §3

methionine 14-3-3γ [4] = test: IEF-immunoblotting for induction of methionine 14-3-3γ in U20S (osteosarcoma) cells; assay type: cell-based, human; conditions: for expression of the altered 14-3-3γ isoform: U20S cells treated with the compound (summary statement, no concentration given)
Experimental: [The procedure below names another cell line; the source says it served here with some conditions changed.] as §1
as §2, with “A polyethylene film is placed over the filter sheets and a 3 kg weight having a 14 cm by 14 cm flat surface is placed over the polyethylene film to ensure a good contact between the layers. The gel layers are undisturbed to allow transfer for overnight, then the membrane is washed with water and treated with a solution of 0.5% formaldehyde in PBS for 30 minutes. The membrane is incubated with 2% glycine in PBS at pH 7 for 30 minutes.” left out

methionine 14-3-3γ [5] = test: IEF-immunoblotting of white blood cell fraction from treated rats for methionine 14-3-3γ; assay type: in vivo; conditions: 3 mg/kg three times for a day, rested 7 days, dosed three times again, blood collected after one day rest
Experimental: One group of laboratory rats is treated with the bengamide analogue LAF389 of Example 2 three times for a day at the 3 mg/kg dosage, then rested for 7 days. Th rats are again dosed three times the following day with the dosage. They are rested for one day and blood samples are collected. Peripheral blood is collected by a percoll gradient centrifugation protocol. The white blood cell fraction including platelets is recovered and the pellet is lysed in IEF sample buffer. The bio-samples are analyzed with the IEF-immunoblotting analysis. Control bio-samples are obtained from a group of rats that are not treated with the bengamide analogue.

For `CO[C@@H]1[C@H](OC(=O)NC(=O)CCl)CC[C@]2(CO2)[C@H]1[C@@]1(C)O[C@@H]1CC=C(C)C` [AGM-1470], the “induction of methionine 14-3-3γ (IEF-immunoblotting)” value (“induction of methionine 14-3-3γ” for short) (methionine 14-3-3γ [1]; AGM-1470 in place of bengamide) was “induce methionine 14-3-3γ”.

For `COC(C(=O)NC1CCC(OC(=O)C2CCCCC2)CNC1=O)C(O)C(O)C(O)/C=C/C(C)(C)C` (stereo not shown) [LAF389], the “induction/accumulation of methionine 14-3-3γ (IEF-immunoblotting)” value (methionine 14-3-3γ [1]; 200 nM LAF389, samples at 8, 16, 24 and 48 hours) was “induce and accumulate the protein which is reactive to the 14-3-3γ antibody”, the “induction of methionine 14-3-3γ” value (methionine 14-3-3γ [1]; 18 hours, LAF389 200 nM, 5-fluorouracil 20 μg/ml, epothilone 500 nM, doxorubicin 1 μg/ml, stauosporin 1 μM) was “induced methionine 14-3-3γ” and the “induction of methionine 14-3-3γ” value (methionine 14-3-3γ [2]) was “induce methionine 14-3-3γ within 18 hours”. For the same molecule, the “induction of methionine 14-3-3γ” value (methionine 14-3-3γ [3]) was “induce methionine 14-3-3γ within 18 hours”, the “induction of methionine 14-3-3γ” value (methionine 14-3-3γ [4]; U20S cells, 200 nM LAF389, within 18 hours) was “induce methionine 14-3-3γ within 18 hours” and the “induction and accumulation of methionine 14-3-3γ in white blood cell fraction” value (methionine 14-3-3γ [5]) was “induce and accumulate methionine 14-3-3γ”.

`CO[C@@H]1[C@H](OC(=O)/C=C/C=C/C=C/C=C/C(=O)O)CC[C@]2(CO2)[C@H]1[C@@]1(C)O[C@@H]1CC=C(C)C` [fumagillin] was tested, and the “expression of the altered 14-3-3γ isoform” value (methionine 14-3-3γ [4]) was “express the altered 14-3-3γ isoform”.

bengamide was tested, and the “induction/accumulation of methionine 14-3-3γ (IEF-immunoblotting)” value (methionine 14-3-3γ [1]; 25 μM bengamide, samples at 8, 16, 24 and 48 hours) was “gradually accumulate over the 48 hour culture period the protein that reacts with the 14-3-3γ specific antibody” and the “expression of the altered 14-3-3γ isoform” value (methionine 14-3-3γ [4]) was “express the altered 14-3-3γ isoform”.
